Values quoted from earlier work as cited in patent US9259392B2, “Cochleate compositions directed against expression of proteins” (Rutgers, The State University of New Jersey, priority 2003, dated 2016).

Columns and labels:
[1] = molecular target: Aspergillus fumigatus H^+-ATPase; settings: cited from earlier work
pathogenic fungi = settings: cited from earlier work

[O]=[V]([OH])([OH])[OH] [orthovanadate]
IC50 [1]: ~800 nM

CCN1CCC(O)(C=Cc2ccc(Cl)cc2)C(C(=O)C=Cc2ccc(Cl)cc2)C1.Cl (centres unmarked) [NC1175, 3-[3-(4-chlorophenyl)-2-propenoyl]-4-[2-(4-chlorophenyl)vinylene]-1-ethyl-4-piperidinol hydrochloride]
antifungal activity (pathogenic fungi): antifungal activity against a wide spectrum of pathogenic fungi
